Measurements: ChEMBL document CHEMBL1201862, “PubChem BioAssay data set” (2004)
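In this assay, cells in 96-well plates receive the compound at five concentrations for 48 hours. Endpoints are linearly interpolated between the surrounding concentrations. Here, GI50 denotes the concentration required for 50% inhibition of growth.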 Activity calls are given as the source filed them. Rule as the data show it: active = GI50 up to about 1.1 µM and inactive = higher.

Legend:
Assay in all cases: growth of human tumour cells (NCI), 48 h
HCT-15 = system: HCT-15
COLO 205 = system: COLO 205
BT-549 = system: BT-549
UO-31 = system: UO-31
CCRF-CEM = system: CCRF-CEM
SK-OV-3 = system: SK-OV-3
MDA-MB-231 = system: MDA-MB-231
SW-620 = system: SW-620
SK-MEL-28 = system: SK-MEL-28
HCC 2998 = system: HCC 2998
Malme-3M = system: Malme-3M
HL-60 = system: HL-60
UACC-62 = system: UACC-62
LOX IMVI = system: LOX IMVI
TK-10 = system: TK-10
SNB-19 = system: SNB-19
NCI-H23 = system: NCI-H23
KM12 = system: KM12
NCI-H226 = system: NCI-H226
SNB-75 = system: SNB-75
Hs-578T = system: Hs-578T
NCI-H522 = system: NCI-H522
RPMI-8226 = system: RPMI-8226
IGROV-1 = system: IGROV-1
PC-3 = system: PC-3
DU-145 = system: DU-145
HT-29 = system: HT-29
SN12C = system: SN12C
786-0 = system: 786-0
SF-539 = system: SF-539
SK-MEL-5 = system: SK-MEL-5
T47D = system: T47D
EKVX = system: EKVX
M14 = system: M14
MDA-N = system: MDA-N
MDA-MB-435 = system: MDA-MB-435
HOP-62 = system: HOP-62
SF-268 = system: SF-268
MOLT-4 = system: MOLT-4
HCT-116 = system: HCT-116
K562 = system: K562
CAKI-1 = system: CAKI-1
SF-295 = system: SF-295
MCF7 = system: MCF7
SR = system: SR
A549 = system: A549
OVCAR-8 = system: OVCAR-8
UACC-257 = system: UACC-257
HOP-92 = system: HOP-92
U-251 = system: U-251
NCI/ADR-RES = system: NCI/ADR-RES
OVCAR-5 = system: OVCAR-5
ACHN = system: ACHN
RXF 393 = system: RXF 393
NCI-H460 = system: NCI-H460
SK-MEL-2 = system: SK-MEL-2
OVCAR-3 = system: OVCAR-3
OVCAR-4 = system: OVCAR-4

C=CCOCn1ccc(N)nc1=O
GI50 (HCT-15): > 100 µM
GI50 (COLO 205): > 100 µM (inactive)
GI50 (BT-549): > 100 µM (inactive)
GI50 (UO-31): > 100 µM (inactive)
GI50 (CCRF-CEM): > 100 µM (inactive)
GI50 (SK-OV-3): > 100 µM (inactive)
GI50 (MDA-MB-231): > 100 µM (inactive)
GI50 (SW-620): > 100 µM (inactive)
GI50 (SK-MEL-28): > 100 µM (inactive)
GI50 (HCC 2998): > 100 µM (inactive)
GI50 (Malme-3M): > 100 µM (inactive)
GI50 (HL-60): > 100 µM (inactive)
GI50 (UACC-62): > 100 µM (inactive)
GI50 (LOX IMVI): > 100 µM (inactive)
GI50 (TK-10): > 100 µM (inactive)
GI50 (SNB-19): > 100 µM (inactive)
GI50 (NCI-H23): > 100 µM (inactive)
GI50 (KM12): > 100 µM (inactive)
GI50 (NCI-H226): > 100 µM (inactive)
GI50 (SNB-75): > 100 µM (inactive)
GI50 (Hs-578T): > 100 µM (inactive)
GI50 (NCI-H522): > 100 µM (inactive)
GI50 (RPMI-8226): > 100 µM (inactive)
GI50 (IGROV-1): > 100 µM (inactive)
GI50 (PC-3): > 100 µM (inactive)
GI50 (DU-145): > 100 µM (inactive)
GI50 (HT-29): > 100 µM (inactive)
GI50 (SN12C): > 100 µM (inactive)
GI50 (786-0): > 100 µM (inactive)
GI50 (SF-539): > 100 µM (inactive)
GI50 (SK-MEL-5): > 100 µM (inactive)
GI50 (T47D): > 100 µM (inactive)
GI50 (EKVX): > 100 µM (inactive)
GI50 (M14): > 100 µM (inactive)
GI50 (MDA-N): > 100 µM (inactive)
GI50 (MDA-MB-435): > 100 µM (inactive)
GI50 (HOP-62): > 100 µM (inactive)
GI50 (SF-268): > 100 µM (inactive)
GI50 (MOLT-4): > 100 µM (inactive)
GI50 (HCT-116): > 100 µM (inactive)
GI50 (K562): > 100 µM (inactive)
GI50 (CAKI-1): > 100 µM (inactive)
GI50 (SF-295): > 100 µM (inactive)
GI50 (MCF7): > 100 µM (inactive)
GI50 (SR): > 100 µM (inactive)
GI50 (A549): > 100 µM (inactive)
GI50 (OVCAR-8): > 100 µM (inactive)
GI50 (UACC-257): > 100 µM (inactive)

CCCCCCNC(=O)c1cc(NCc2cc(OC)ccc2OC)ccc1O
GI50 (HCT-15): 21.1 µM
GI50 (COLO 205): 19 µM (inactive)
GI50 (HOP-92): 6.98 µM (inactive)
GI50 (BT-549): 15.5 µM (inactive)
GI50 (UO-31): 17.7 µM (inactive)
GI50 (CCRF-CEM): 20.5 µM (inactive)
GI50 (SK-OV-3): 13.1 µM (inactive)
GI50 (MDA-MB-231): 18.7 µM (inactive)
GI50 (SW-620): 30.7 µM (inactive)
GI50 (SK-MEL-28): 31.8 µM (inactive)
GI50 (HCC 2998): 26.6 µM (inactive)
GI50 (Malme-3M): 22.5 µM (inactive)
GI50 (U-251): 17.9 µM (inactive)
GI50 (HL-60): 14.4 µM (inactive)
GI50 (UACC-62): 15 µM (inactive)
GI50 (LOX IMVI): 16.6 µM (inactive)
GI50 (TK-10): 42.6 µM (inactive)
GI50 (SNB-19): 33 µM (inactive)
GI50 (NCI-H23): 24.7 µM (inactive)
GI50 (KM12): 24.8 µM (inactive)
GI50 (NCI-H226): 20 µM (inactive)
GI50 (SNB-75): 26.1 µM (inactive)
GI50 (Hs-578T): 28 µM (inactive)
GI50 (NCI-H522): 14.3 µM (inactive)
GI50 (RPMI-8226): 12.2 µM (inactive)
GI50 (IGROV-1): 21.3 µM (inactive)
GI50 (NCI/ADR-RES): 16.9 µM (inactive)
GI50 (PC-3): 20.2 µM (inactive)
GI50 (DU-145): 24.2 µM (inactive)
GI50 (HT-29): 31.3 µM (inactive)
GI50 (SN12C): 20.6 µM (inactive)
GI50 (786-0): 27.9 µM (inactive)
GI50 (SF-539): 18.5 µM (inactive)
GI50 (SK-MEL-5): 14.5 µM (inactive)
GI50 (T47D): 13.5 µM (inactive)
GI50 (OVCAR-5): 51.4 µM (inactive)
GI50 (EKVX): 23.9 µM (inactive)
GI50 (M14): 18.7 µM (inactive)
GI50 (ACHN): 32.8 µM (inactive)
GI50 (MDA-N): 18.9 µM (inactive)
GI50 (RXF 393): 18.7 µM (inactive)
GI50 (MDA-MB-435): 18.9 µM (inactive)
GI50 (SF-268): 13.3 µM (inactive)
GI50 (MOLT-4): 25.7 µM (inactive)
GI50 (HCT-116): 21.1 µM (inactive)
GI50 (NCI-H460): 24.7 µM (inactive)
GI50 (K562): 14.8 µM (inactive)
GI50 (CAKI-1): 27.2 µM (inactive)
GI50 (SK-MEL-2): 21.7 µM (inactive)
GI50 (SF-295): 12 µM (inactive)
GI50 (MCF7): 22.1 µM (inactive)
GI50 (A549): 29.6 µM (inactive)
GI50 (OVCAR-3): 0.865 µM (active)
GI50 (OVCAR-4): 22.8 µM (inactive)
GI50 (OVCAR-8): 20.7 µM (inactive)
GI50 (UACC-257): 16.9 µM (inactive)
